Laboratory results reported in US20240417405A1, “Substituted Spiro Derivatives” (Janssen Pharmaceutica NV, priority 2021, published 2024).

Assays:
[1] = target: T1, menin/MLL (terbium chelate-labeled menin, FITC-MBM1 peptide) (Homo sapiens, UniProt O00255, T541A); test: Menin/MLL homogenous time-resolved fluorescence (HTRF) assay; type: binding; settings: 30 min incubation
T1 construct: Menin (a.a 1-610-6xhis tag)
T1 sequence (O00255 with tags, fused parts or gaps T541A): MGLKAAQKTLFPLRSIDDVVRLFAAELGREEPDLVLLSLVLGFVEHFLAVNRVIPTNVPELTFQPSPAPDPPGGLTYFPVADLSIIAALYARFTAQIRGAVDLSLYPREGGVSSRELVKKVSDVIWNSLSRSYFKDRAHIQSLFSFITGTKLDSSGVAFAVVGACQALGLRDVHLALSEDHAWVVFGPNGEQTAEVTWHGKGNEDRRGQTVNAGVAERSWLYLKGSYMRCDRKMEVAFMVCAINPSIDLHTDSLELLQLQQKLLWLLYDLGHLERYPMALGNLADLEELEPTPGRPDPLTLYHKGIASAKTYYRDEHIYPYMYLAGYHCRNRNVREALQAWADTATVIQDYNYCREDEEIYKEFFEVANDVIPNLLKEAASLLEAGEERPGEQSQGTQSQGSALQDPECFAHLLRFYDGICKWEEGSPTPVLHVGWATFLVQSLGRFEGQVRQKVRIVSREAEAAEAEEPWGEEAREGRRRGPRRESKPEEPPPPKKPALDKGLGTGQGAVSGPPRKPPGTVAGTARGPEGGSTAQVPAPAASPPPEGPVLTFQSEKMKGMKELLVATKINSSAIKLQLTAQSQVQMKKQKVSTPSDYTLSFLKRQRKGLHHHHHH
Procedure, shortened: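 Tb-cryptate menin (1-610, 6xHis) 200 pM + cmpd, 30 min RT; + FITC-MBM1 75 nM, 15 min RT. 40 mM Tris pH 7.5, 50 mM NaCl, 1 mM DTT, 0.05% Pluronic F-127, 0.5% DMSO. HTRF 520/490; 11-pt 4-fold from 10 μM; IC50 fit.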

MOLM14 cells = test: Proliferation assay, spheroid-like growth, MOLM14 (MLL-AF9 rearranged); type: cell-based, human; settings: Homo sapiens, MOLM-14, 192 h, 8 days, confluence as measure of spheroid size, read-out: spheroid assay_OneTime MOLM14 IC50
Procedure, shortened: (§1)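 200 MOLM14 or 300 KO-52 cells/well, ultra-low attachment, compound dilutions, DMSO 0.3%; 8 d, 37 °C, 5% CO2. Read: live-cell imaging confluence (spheroid size) day 8. Absolute IC50, min 0%/max 100% fixed, variable slope.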

KO-52 cells = test: Proliferation assay, spheroid-like growth, KO-52 (MLL wildtype control cell line); type: cell-based, human; settings: Homo sapiens, 192 h, KO-52 control cells, 8 days, confluence as measure of spheroid size; read-out: spheroid assay_OneTime KO-52 IC50
Procedure, shortened: as §1

SMILES | IC50 [1] | IC50 (MOLM14 cells) | IC50 (KO-52 cells)
CNC(=O)c1cnc(N[C@H]2C[C@@H]([C@@H](C(C)C)N3CC4(CCN(c5ncnnc5Oc5ccc(F)cc5-c5cncnc5C5CC5)C4)C3)C2)s1 (single isomer, unassigned) [Compound 437] | 0.05 nM | 3.3 nM | 4700 nM
CC(C)[C@@H](C1CC2(CCN2CC2COC2)C1)N1CC2(CCN(c3ncnnc3Oc3ccc(F)cc3-c3cncnc3C3CC3)C2)C1 (single isomer, unassigned) [Compound 158] | 0.8 nM | 480 nM | > 15000 nM
CC(C)[C@@H]([C@H]1C[C@@H](N2CC3(COC3)C2)C1)N1CC2(CCN(c3ncnnc3Oc3ccc(F)cc3-c3cnncc3C3CC3)C2)C1 (single isomer, unassigned) [Compound 106] | 0.1 nM | 11 nM | 4990 nM
CC(C)[C@H]([C@H]1C[C@@H](N2CCCC2)C1)N1CC2(CCN(c3ncnnc3Oc3ccc(F)cc3-c3cncnc3C3CC3)C2)C1 (single isomer, unassigned) [Compound 18] | 0.1 nM | 2 nM | 810 nM
CC(C)[C@@H]([C@H]1C[C@@H](N2CC3(CCO3)C2)C1)N1CC2(CCN(c3ncnnc3Oc3ccc(F)cc3-c3ncncc3C3CC3)C2)C1 (single isomer, unassigned) [Compound 101] | 0.1 nM | 10 nM | 1070 nM
COC1(C)CCN([C@H]2C[C@H]([C@H](C(C)C)N3CC4(CCN(c5ncnnc5Oc5ccc(F)cc5-c5nnccc5C5CC5)C4)C3)C2)C1 (mixture of isomers) [Compound 276] | 0.8 nM | 82 nM | > 15000 nM
